Experimental findings from patent US20240327385A1, “SUBSTITUTED PIPERIDINE COMPOUNDS AS RENIN INHIBITORS” (priority 2023, published 2024) are described below.

Chain of human recombinant renin (P00797 67-406): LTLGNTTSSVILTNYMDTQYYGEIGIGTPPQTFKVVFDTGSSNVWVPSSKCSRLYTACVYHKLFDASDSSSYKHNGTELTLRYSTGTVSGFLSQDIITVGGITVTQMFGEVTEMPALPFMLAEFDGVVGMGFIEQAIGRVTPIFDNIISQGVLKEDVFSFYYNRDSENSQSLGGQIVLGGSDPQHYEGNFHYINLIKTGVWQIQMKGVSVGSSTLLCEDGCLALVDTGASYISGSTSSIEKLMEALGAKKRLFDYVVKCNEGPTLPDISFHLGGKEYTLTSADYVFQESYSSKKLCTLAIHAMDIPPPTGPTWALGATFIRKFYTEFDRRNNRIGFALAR

The assay deals with human recombinant renin (Homo sapiens (Human), UniProt P00797). The experiment in a line: human renin activity inhibition (SensoLyte 520 Renin Assay Kit Fluorimetric). The settings on record: 30 min preincubation at 37° C., fluorescence at 530 nm after 15 min at 37° C., read-out: IC50 (nM), inhibitory effect on human renin activity. The format is biochemical. Here is the method:
The exemplary compounds of the disclosure were tested for their inhibitory effects on human renin activity, using a commercially available renin assay kit (SensoLyte® 520 Renin Assay Kit Fluorimetric), following the manufacture's manual.
Briefly, human recombinant renin (from the kit) was incubated with the compound of the disclosure or buffer for 30 min at 37° C. before substrate addition. Fluorescence intensity was measured at 530 nm after an incubation of 15 min at 37° C. Data was analyzed by Prism and fitted into a sigmodal curve for IC50 calculation.
For `CO[C@H]1C[C@H](Nc2cc(C3CC3)cnc2C(=O)N(CC(C)C)[C@@H]2CNCC(c3nnc(C4COC4)o3)C2)C1` (stereo in doubt) [Compound 34, (3S)—{N-(2-methylpropyl), N-{5-cyclopropyl-3-[3-(trans-methoxy)cyclobutyl]amino}pyridine-2-carbonyl}amino-(5R)-[5-(oxetan-3-yl)-1,3,4-oxadiazol-2-yl]-piperidine], the IC50 (usually the concentration that gives 50% inhibition) is under 10 nM.

For the compound `Cc1nnc(C2CNC[C@@H](N(CC(C)C)C(=O)c3ncc(C4CC4)cc3NC3COC3)C2)o1` (stereo in doubt) [Compound 37, (3S)—{N-(2-methylpropyl), N-[5-cyclopropyl-3-(oxetan-3-yl)amino]pyridine-2-carbonyl}amino-(5R)-(5-methyl-1,3,4-oxadiazol-2-yl)-piperidine], the half-inhibitory concentration (IC50) was under 20 nM.

Consider `Cc1noc(C2CNC[C@@H](N(CC(C)C)C(=O)c3ncc(C4CC4)cc3NC3COC3)C2)n1` (stereo in doubt) [Compound 38, (3S)—{N-(2-methylpropyl), N-[5-cyclopropyl-3-(oxetan-3-yl)amino]pyridine-2-carbonyl}amino-(5R)-(3-methyl-1,2,4-oxadiazol-5-yl)-piperidine], for which the IC50 is under 50 nM.

For the compound `CO[C@H]1C[C@H](Nc2cc(C3CC3)cnc2C(=O)N(CC2CC2)[C@@H]2CNCC(c3nnco3)C2)C1` (stereo in doubt) [Compound 44, (3S)—{N-cyclopropylmethyl, N-{5-cyclopropyl-3-[3-(trans-methoxy)cyclobutyl]amino}pyridine-2-carbonyl}amino-(5R)-(1,3,4-oxadiazol-2-yl)-piperidine], the IC50 was under 10 nM.

With `CO[C@H]1C[C@H](Nc2cc(C3CC3)cnc2C(=O)N(CC(C)C)[C@@H]2CNC[C@H](C(=O)N3CC(F)C3)C2)C1` [Compound 10, (3S)—{N-(2-methylpropyl), N-{5-cyclopropyl-3-[3-(trans-methoxy)cyclobutyl]amino}pyridine-2-carbonyl}amino-(5R)-(3-fluoroazetidine-N-carbonyl)-piperidine], the IC50 was found to be 1.8 nM.

In the case of `CO[C@H]1C[C@H](Nc2cc(C3CC3)cnc2C(=O)N(CC(C)C)C2CNCC(C(=O)N3CCC(F)(F)C3)C2)C1` (stereo partly drawn) [Compound 11, (3S)—{N-(2-methylpropyl), N-{5-cyclopropyl-3-[3-(trans-methoxy)cyclobutyl]amino}pyridine-2-carbonyl}amino-(5R)-(3,3-difluoropyrrolidine-N-carbonyl)-piperidine], the IC50 stood at 1.2 nM.

Consider `CO[C@H]1C[C@H](Nc2cc(C3CC3)cnc2C(=O)N(CC(C)C)C2CNCC(C(=O)N3CCC(F)(F)CC3)C2)C1` (stereo partly drawn) [Compound 12, (3S)—{N-(2-methylpropyl), N-{5-cyclopropyl-3-[3-(trans-methoxy)cyclobutyl]amino}pyridine-2-carbonyl}amino-(5R)-(4,4-difluoropiperidine-N-carbonyl)-piperidine], for which the IC50 was 1.6 nM.

Take `CO[C@H]1C[C@H](Nc2cc(C3CC3)cnc2C(=O)N(CC(C)C)C2CNCC(C(=O)N3CCC(OC(F)(F)F)CC3)C2)C1` (stereo partly drawn) [Compound 13, (3S)—{N-(2-methylpropyl), N-{5-cyclopropyl-3-[3-(trans-methoxy)cyclobutyl]amino}pyridine-2-carbonyl}amino-(5R)-(4-trifluoromethoxypiperidine-N-carbonyl)-piperidine]: the IC50 was 3.8 nM.

Consider `CO[C@H]1C[C@H](Nc2cc(C3CC3)cnc2C(=O)N(CC(C)C)C2CNCC(C(=O)N3CCOC[C@H]3C)C2)C1` (stereo partly drawn) [Compound 14, (3S)—{N-(2-methylpropyl), N-{5-cyclopropyl-3-[3-(trans-methoxy)cyclobutyl]amino}pyridine-2-carbonyl}amino-(5R)-[(3R)-methylmorpholine-N-carbonyl]-piperidine], for which the IC50 came out at 1.2 nM.

In the case of `CO[C@H]1C[C@H](Nc2cc(C3CC3)cnc2C(=O)N(CC(C)C)C2CNCC(C(=O)N3CCOC[C@@H]3C)C2)C1` (stereo partly drawn) [Compound 15, (3S)—{N-(2-methylpropyl), N-{5-cyclopropyl-3-[3-(trans-methoxy)cyclobutyl]amino}pyridine-2-carbonyl}amino-(5R)-[(3S)-methylmorpholine-N-carbonyl]-piperidine], the IC50 came out at 1 nM.
